Data as given in patent US9029639B2, “Pyridazine compounds for controlling invertebrate pests” (BASF SE, priority 2009, dated 2015).

System: Cowpea aphid (Aphis craccivora)
Assay: Activity against cowpea aphid (Aphis craccivora), spray on potted cowpea plants
Assay type: in vivo
Conditions: population reduction assessed after 24, 72 and 120 hours, read-out: mortality in comparison with untreated controls
Experimental: II.3 Activity Against Cowpea Aphid (Aphis craccivora)
The active compounds were formulated in 50:50 (vol:vol) acetone:water. The test solution was prepared at the day of use.
Potted cowpea plants colonized with 100-150 aphids of various stages were sprayed after the pest population had been recorded. Population reduction was assesed after 24, 72, and 120 hours.

## Cc1nc(C(=O)N(C)c2ccnnc2)cs1 [Compound 5, 2-Methyl-thiazole-4-carboxylic acid methyl-pyridazin-4-yl-amide]
  mortality at 300 ppm: ≥ 90%
